Laboratory results: the NIST ThermoML archive (doi:10.1021/acs.jced.5b00105)

Test: xn = mol fraction of the nth substance listed
Settings: for surface tension liquid-gas: Drop volume; for viscosity / mass density: 100 kPa, Liquid; for viscosity: Concentric cylinders viscometry; for mass density: Vibrating tube method

CCCCC1CCCCC1 [butylcyclohexane] + CC(C)CC(C)(C)C
Settings | mass density [kg/m3] | surface tension liquid-gas [mN/m] | viscosity [mPa·s]
293.15 K, x1 = 0.0999 | 704.07 | – | 0.567
293.15 K, x1 = 0.1008 | – | 19.63 | –
293.15 K, x1 = 0.2 | – | 20.32 | –
293.15 K, x1 = 0.2002 | 715.88 | – | 0.623
293.15 K, x1 = 0.3001 | 727.35 | 21.02 | 0.679
293.15 K, x1 = 0.3996 | 738.44 | – | 0.744
293.15 K, x1 = 0.3999 | – | 21.75 | –
293.15 K, x1 = 0.5004 | – | 22.42 | –
293.15 K, x1 = 0.5005 | 749.38 | – | 0.816
293.15 K, x1 = 0.5999 | – | 23.17 | –
293.15 K, x1 = 0.6003 | 759.9 | – | 0.896
293.15 K, x1 = 0.6994 | 770.07 | – | 0.981
293.15 K, x1 = 0.6995 | – | 23.97 | –
293.15 K, x1 = 0.7998 | – | 24.87 | –
293.15 K, x1 = 0.8 | 780.14 | – | 1.078
293.15 K, x1 = 0.9 | – | 25.85 | –
293.15 K, x1 = 0.9001 | 789.89 | – | 1.184
293.15 K, x1 = 1 | 799.37 | 26.81 | 1.304
298.15 K, x1 = 0.0999 | 700.02 | – | 0.537
298.15 K, x1 = 0.1008 | – | 19 | –
298.15 K, x1 = 0.2 | – | 19.59 | –
298.15 K, x1 = 0.2002 | 711.89 | – | 0.588
298.15 K, x1 = 0.3001 | 723.39 | 20.24 | 0.64
298.15 K, x1 = 0.3996 | 734.52 | – | 0.698
298.15 K, x1 = 0.3999 | – | 20.9 | –
298.15 K, x1 = 0.5004 | – | 21.56 | –
298.15 K, x1 = 0.5005 | 745.49 | – | 0.763
298.15 K, x1 = 0.5999 | – | 22.29 | –
298.15 K, x1 = 0.6003 | 756.05 | – | 0.835
298.15 K, x1 = 0.6994 | 766.27 | – | 0.912
298.15 K, x1 = 0.6995 | – | 23.1 | –
298.15 K, x1 = 0.7998 | – | 23.95 | –
298.15 K, x1 = 0.8 | 776.35 | – | 0.998
298.15 K, x1 = 0.9 | – | 24.93 | –
298.15 K, x1 = 0.9001 | 786.12 | – | 1.093
298.15 K, x1 = 1 | 795.63 | 25.87 | 1.199
303.15 K, x1 = 0.0999 | 695.93 | 18.58 | 0.51
303.15 K, x1 = 0.2002 | 707.85 | 19.11 | 0.556
303.15 K, x1 = 0.3001 | 719.4 | 19.81 | 0.605
303.15 K, x1 = 0.3996 | 730.57 | 20.49 | 0.657
303.15 K, x1 = 0.5005 | 741.58 | 21.39 | 0.717
303.15 K, x1 = 0.6003 | 752.17 | 21.79 | 0.781
303.15 K, x1 = 0.6994 | 762.43 | 22.68 | 0.851
303.15 K, x1 = 0.8 | 772.54 | 23.51 | 0.929
303.15 K, x1 = 0.9001 | 782.34 | 24.53 | 1.014
303.15 K, x1 = 1 | 791.88 | 25.49 | 1.109
308.15 K, x1 = 0.0999 | – | – | 0.486
308.15 K, x1 = 0.1008 | – | 18.07 | –
308.15 K, x1 = 0.2 | – | 18.59 | –
308.15 K, x1 = 0.2002 | – | – | 0.528
308.15 K, x1 = 0.3001 | – | 19.17 | 0.573
308.15 K, x1 = 0.3996 | – | – | 0.621
308.15 K, x1 = 0.3999 | – | 19.76 | –
308.15 K, x1 = 0.5004 | – | 20.41 | –
308.15 K, x1 = 0.5005 | – | – | 0.675
308.15 K, x1 = 0.5999 | – | 21.12 | –
308.15 K, x1 = 0.6003 | – | – | 0.734
308.15 K, x1 = 0.6994 | – | – | 0.797
308.15 K, x1 = 0.6995 | – | 21.94 | –
308.15 K, x1 = 0.7998 | – | 22.79 | –
308.15 K, x1 = 0.8 | – | – | 0.868
308.15 K, x1 = 0.9 | – | 23.73 | –
308.15 K, x1 = 0.9001 | – | – | 0.945
308.15 K, x1 = 1 | – | 24.73 | 1.031
